The results in this text go back to US20250387462A1, “LIPID NANOPARTICLES FOR […] OF NUCLEIC ACIDS AND VACCINE FOR THE PREVENTION OF TU[…] OTHER MYCOBACTERIAL INFECTIONS” (priority 2024, published 2025).

Data set [1] is described as follows: Apparent solubility of phosphatidylserine salts in ethanol (shake flask). It counts as physicochemical. Conditions: 21 °C, organic solvent or mixture, thermodynamic from solid, 100% ethanol, room temperature, average±SD (N=3). As to the method:
Apparent solubilities of phosphatidylserine salts in ethanol were determined by shake flask technique. Sodium and ammonium salts of phosphatidylserines in the powder form were obtained from Avanti Polar Lipids (Alabama, USA). Aliquots of phosphatidylserine salt powder were placed in 12×75 borosilicate glass tubes in triplicate. Three mL of 200 proof ethanol (catalog number E-7023, MilliporeSigma, USA) were added, the tubes were closed with polyethylene snap caps, agitated using vortex mixer for 10-15 s to obtain uniform suspensions, and placed in a horizontal position on a rocking platform at room temperature (20-22° C.) overnight. The ambient temperature at the end of incubation was 20.4-20.9° C. After 24 hours incubation, the suspensions were visually checked for the presence of a solid phase, allowed to settle under gravity, and the supernatant solutions were passed through a 0.2-μm PTFE syringe membrane filters. The first 0.5 ml of the filtrate was discarded, the next 1 ml was collected, and phosphatidylserine in the filtrates was quantified by phospholipid phosphate assay as follows: 20 μL aliquots of the filtrate were taken in triplicate into glass tubes, ethanol was evaporated in a stream of argon at 70° C., and the residue was digested in a mixture of 60 μL concentrated sulfuric acid and 20 μL 30% hydrogen peroxide for 10 min at 180-190° C. The digested samples were diluted with 1 mL of deionized water, 20 μL of 10% sodium sulfite was added to destroy any residual peroxide, and the samples were incubated on a boiling water bath for 15 min to hydrolyze any condensed phosphate species. The samples were chilled down to room temperature, mixed with 0.2 mL of 2% (w/w) ammonium molybdate solution and 20 μL of 10% (w/w) ascorbic acid solution, incubated on a boiling water bath for 10 min, and chilled down in a water bath at room temperature. The phosphate concentration was determined from the optical density of the formed blue phosphomolybdic acid at 825 nm using five-point standard curve from concurrently run standards prepared from the NIST-traceable commercial phosphate standard solution diluted to cover the range of 0-2 mM phosphate (coefficient of determination R^2>0.9999). Solubility of phosphatidylserine salts was expressed in molarity units of phosphatidylserine (Table 28). The data are average±SD (N=3).

Data set [2] concerns Mtb-specific CD4 and CD8 T cells. As to the kind of experiment: Mtb antigen-specific splenic CD4 and CD8 T cell responses after mRNA-LNP vaccination of CB6F1 or B6C3F1 mice (peptide pool stimulation, intracellular cytokines). The data set is classed as in vivo. To be noted: 1 ug or 0.2 ug i.m., boost 5 weeks, 8 days later, lipid in DPPS-targeted LNP.
Data set [3] can be described thus: In vivo metabolism of ionizable lipid after intramuscular injection. The text has this:
We have observed that in vivo metabolism of the KC3-OA lipids after intramuscular injection is slow. This is not unexpected because there are no ester linkages in the lipid tail that would allow for the release of the lipid head group and subsequent clearance from the body. We have identified multiple biodegradable ICLs that differ in the length of the lipid tail, the location and orientation of the ester linkage, and the inclusion of a double bond in the lipid tail.

The subject of data set [4] is MutuDC1940 cells. As to the kind of experiment: mCherry mRNA transfection efficiency of LNPs in murine dendritic cells (flow cytometry). To be noted: lipid in LNPs, even in the presence of DPPS targeting lipid. It counts as cell-based. Here is the method:
• 1. MutuDC1940 cells (Applied Biological Materials, T0528) were grown according to supplier's instructions in T75 flasks. They were plated at 180,000 cells/well into 24-well plate one day prior to transfection. • 2. LNPs were added in triplicate to each well at the desired mRNA concentration (e.g. 1 μg/mL) in 1 mL media and after 24 h the cells were washed once with DPBS (VWR 02-0119-1000). • 3. 0.2 mL of DPBS (plus 5 mM EDTA, pH 7.4) was then added to facilitate detachment. • 4. The cells were placed at 37° C. for 3 min, until detached. • 5. 0.5 ml DPBS added to each well and the liquid transferred to a flow cytometry tube (Falcon 5 mL #352054). • 6. The tube was centrifuged at 1100 rpm for 3-5 min and the liquid poured off. • 7. 100 μL of Zombie Violet (Biolegend) (diluted 1:500 in PBS) was added to each tube. • 8. The tubes were gently tapped to resuspend cells and placed in the dark for 15 min at RT. • 9. […]
Cells suspensions were analyzed by an Attune NXT flow cytometer using the VL1 and YL2 for live/dead and mCherry fluorescence signals respectively. […]
The aim of this study was to explore the effect of different KC2 and KC3 ICLs on transfection efficiency in murine dendritic cells. […] Two other variants evaluated have monounsaturated alkyl chains with KC3-OA being 18 carbons in length and KC3C17(8:1) having 17 carbons. […]
For orientation: Flow cytometry measures light scatter and fluorescence of single cells or particles in a stream.

For the compound `CCCCCCCCCCCCCCCCCC(=O)OC[C@H](COP(=O)(O)OC[C@H](N)C(=O)O)OC(=O)CCCCCCCCCCCCCCCCC.N` [DSPS ammonium], the solubility (commonly the dissolved amount per volume that the medium holds) at 24 h in data set [1] is 0.034 ± 0.004 mM.

Take `CCCCCCCCCCCCCCCC(=O)OC[C@H](COP(=O)(O)OC[C@H](N)C(=O)[O-])OC(=O)CCCCCCCCCCCCCCC.[Na+]` [DPPS sodium]: the solubility at 24 h in data set [1] worked out at 0.201 ± 0.004 mM.

`CC(C)CCCC(C)CCCC(C)CCOC(=O)CCCCCCCC1(CCCCCCCC(=O)OCCC(C)CCCC(C)CCCC(C)C)OCC(CCCN(C)C)O1` (stereo not shown) [KC3-X1-PH5]: in data set [2], the “CD4 and CD8 T cell magnitude compared to KC3-OA” value is “statistically performed better than KC3-OA”.

With `CCCCCCCCCCCCCCCC(=O)OC[C@H](COP(=O)(O)OC[C@H](N)C(=O)O)OC(=O)CCCCCCCCCCCCCCC.N` [DPPS ammonium], the solubility at 24 h in data set [1] came to 0.865 ± 0.06 mM.

Take `CCCCCCCCCCCCCCCCCC(=O)OC[C@H](COP(=O)(O)OC[C@H](N)C(=O)[O-])OC(=O)CCCCCCCCCCCCCCCCC.[Na+]` [DSPS sodium]: the solubility at 24 h in data set [1] was determined as 0.111 ± 0.009 mM.

As for `CCCCCCCC/C=C\CCCCCCCCC1(CCCCCCCC/C=C\CCCCCCCC)OC[C@H](CCCN(C)C)O1` [KC3-OA, 3-((S)-2,2-di((Z)-octadec-9-en-1-yl)-1,3-dioxolan-4-yl)-N,N-dimethylpropan-1-amine], the “in vivo metabolism after intramuscular injection” value in data set [3] is on record as “slow”.

Regarding `CCCCCCCCCCCCCCCCCC1(CCCCCCCCCCCCCCCCC)OC[C@H](CCCN(C)C)O1` [KC3-17, (S)-3-(2,2-diheptadecyl-1,3-dioxolan-4-yl)-N,N-dimethylpropan-1-amine], the “transfection activity in murine dendritic cells (in words)” value in data set [4] is “completely inactive”.
